# Where a name gives a salt, the structure may show the parent alone. *1 amine or outer side, *2 acyl side, *3 side chain or, on linkers, in order; H or OH if unused. Where a SMILES comes first, the peptide text is derived from it. Bridges are numbered along the chain shown (N, C = ends). Roman numbers before positions name the chains, in order. [ ]: non-standard residue; d: D form. Actinocin(9to1) = Cc1c2oc3c(C)ccc(C(=O)[*:1])c3nc-2c(C(=O)[*:2])c(N)c1=O; NMeV = CN[C@H](C(=O)O)C(C)C; Sar = CNCC(=O)O
# What was measured:
# [1] = oral administration, multiple myeloma; cited from earlier work
# [2] = cited from earlier work; for elimination half-life: intravenous
# [3] = previously untreated chronic myelogenous leukemia; cited from earlier work
# [4] = test system: HT-29 colon adenocarcinoma cells; assay: Anchorage-independent growth, soft agar colony formation; type: cell-based, human
# Method: Soft agar colony formation is used to determine anchorage independent growth, an in vitro parameter which correlates well with tumorigenicity of HT 29 cells. (AFB-13 cells are unable to form soft agar colonies, a characteristic of normal cells). These assays are performed in 6 well ([…]) multiwell tissue culture dishes. The wells are underlayed with 1% low melting agarose in complete growth media, and refrigerated for 15 min. 1×10^3 HT 29 cells are then added to the wells in complete media in 0.5% low melting agarose. […] After a 24 h incubation period, 0.5 mL of media containing compound to be tested (or media alone as a control) is added to the dish. During the assay, media with or without the test compound is replenished every 3 days. Colonies estimated to contain >100 cells are counted after 14 days. For compounds that induce growth inhibition, the assay is continued to 28 days to assure that differences in colony forming ability were not due to altered growth rate of cells. For initial screening, assays are performed in duplicate for each compound to be tested, due to the large amount of inhibitor required for the length of the study.
# [5] = molecular target: FGFr (fibroblast growth factor receptor catalytic domain); assay: FGFr tyrosine kinase activity, poly E4Y and 32P-ATP; type: biochemical, human
# Excerpt: (§1) The genes encoding Csk, Lck, Abl, and the FGF receptor have all been cloned. The genes encoding Csk, Abl, and the FGF receptor were cloned from humans, and the genes encoding Lck were cloned from a mouse. Recombinant Csk, Lck, Abl, and the FGFr were expressed as glutathione-S-transferase fusion proteins using the pGEX expression vector and E. coli, and purified as described (Sun et al., 1995).
# (§2) Recombinant Src was expressed using the baculovirus-insect cell system and purified as published (Budde et al, 1993). Recombinant Csk, Lck, Abl, and the FGFr were expressed as glutathione-S-transferase fusion proteins using the pGEX expression vector and E. coli, and purified as described (Sun and Budde, 1995).
# (§3) The tyrosine kinase activity of Src, Lck (p56^lck), Csk (C-Src kinase), Abl (Bcr-Abl catalytic domain), and the FGFr (fibroblast growth factor receptor catalytic domain), was determined using poly E4 Y and ^32 P-ATP.
# [6] = test system: HT-29 colon adenocarcinoma cells; assay: Growth of HT-29 cells, viable cell count; type: cell-based, human; conditions: viable cell count 5 days after plating
# Method: (§4) For these assays 2×10^4 cells are plated in 24 well multiwell tissue culture dishes, in 1 ml of DME/F12 media supplemented with 5% fetal bovine serum. After 24 h, media is replaced with fresh media containing the concentration of inhibitor to be tested, or no inhibitor as a control. Cells are counted 1, 3, and 5 days subsequent to addition of inhibitor. For the day 5 counts, media with fresh inhibitor is used to replace spent media after day 3. […] For counting viable cells, cultures are trypsinized, stained with trypan blue, and cell number determined by counting under light microscopy with the use of a hemacytometer. Benzodiazepine derivatives were tested at their maximally soluble concentrations in 0.1% DMSO diluted with tissue culture medium, and serial dilutions were made thereof. Every concentration tested was performed in triplicate, in identical wells under identical assay conditions.
# Lck (p56^lck) = molecular target: T1, Lck (p56^lck) (Mus musculus, UniProt P06240); assay: Lck tyrosine kinase activity, poly E4Y and 32P-ATP; type: biochemical
# T1 construct: glutathione-S-transferase (GST) (N); made in house; host or cells: E. coli
# Excerpt: as §1, §2, §3
# protein kinase A (PKA) = protein kinase A (PKA) (Homo sapiens, UniProt P17612); assay: Enzyme panel: protein kinase A; type: biochemical
# Src [7] = molecular target: T2, Src (Homo sapiens, UniProt P12931); assay: Src tyrosine kinase activity, poly E4Y and 32P-ATP; type: biochemical; conditions: for Ki: Table 10, benzodiazepines as inhibitors of Src
# T2 construct: made in house; host or cells: baculovirus-insect cell system
# Method: The compounds within the library were screened at a concentration of 100 μM using the following assay procedure. A 10 μL aliquot of poly(Glu:Tyr, 4:1) to final concentration of 200 μg/mL, 20 μL of benzodiazepine to be tested, 10 μL of purified Src and 10 μL of [gamma-^32 P]-ATP-MgCl2 cocktail (final concentration of 0.2 mM ATP; specific activity of 600 dpm/pmol, and 6 mM MgCl2) were mixed and incubated in 0.5 mL test tubes at ambient temperature. After 30 min, a 35 μL aliquot was spotted onto a 1×1 inch 3 MM filter paper and dropped into a 5% TCA bath at 60° C. The filter papers were washed 3 times with 5% TCA and air dried. The filter papers were then placed into a vial, 3 mL scintillation cocktail added, and analyzed by liquid scintillation counting.
# as §3
# Csk (C-Src kinase) = molecular target: T3, Csk (C-Src kinase) (Homo sapiens, UniProt P41240); assay: Csk tyrosine kinase activity, poly E4Y and 32P-ATP; type: biochemical
# T3 construct: glutathione-S-transferase (GST) (N); made in house; host or cells: E. coli
# Excerpt: as §1, §2, §3
# [8] = test system: AFB-13 normal human fibroblasts; assay: Growth of AFB-13 cells, control for cellular toxicity; type: cell-based
# Method: as §4
# hexokinase (HXK) = assay: Enzyme panel: hexokinase; type: biochemical
# [9] = molecular target: T4, Abl (Bcr-Abl catalytic domain) (Homo sapiens, UniProt P00519); assay: Abl tyrosine kinase activity, poly E4Y and 32P-ATP; type: biochemical
# T4 construct: Abl (Bcr-Abl catalytic domain); glutathione-S-transferase (GST) (N); made in house; host or cells: E. coli
# T4 sequence (P00519 242-493 limits assumed): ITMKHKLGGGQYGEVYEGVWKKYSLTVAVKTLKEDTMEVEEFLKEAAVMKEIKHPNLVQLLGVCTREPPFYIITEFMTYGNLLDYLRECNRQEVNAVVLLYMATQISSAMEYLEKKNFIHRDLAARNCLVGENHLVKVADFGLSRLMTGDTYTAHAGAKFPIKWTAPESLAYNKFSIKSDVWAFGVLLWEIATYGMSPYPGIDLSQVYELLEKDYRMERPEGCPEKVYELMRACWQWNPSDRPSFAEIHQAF
# Excerpt: as §1, §2, §3
# [10] = cited from earlier work
# [11] = human, in vivo; cited from earlier work
# Src [12] = conditions: Table 10, published peptides as inhibitors of Src; cited from earlier work
# [13] = Homo sapiens, HT-29, 336 h, colonies ≥100 cells 14 days after plating
# [14] = Homo sapiens, Fibroblast, 120 h, viable cell count 5 days after plating
# T2 sequence (P12931 whole entry, species assumed): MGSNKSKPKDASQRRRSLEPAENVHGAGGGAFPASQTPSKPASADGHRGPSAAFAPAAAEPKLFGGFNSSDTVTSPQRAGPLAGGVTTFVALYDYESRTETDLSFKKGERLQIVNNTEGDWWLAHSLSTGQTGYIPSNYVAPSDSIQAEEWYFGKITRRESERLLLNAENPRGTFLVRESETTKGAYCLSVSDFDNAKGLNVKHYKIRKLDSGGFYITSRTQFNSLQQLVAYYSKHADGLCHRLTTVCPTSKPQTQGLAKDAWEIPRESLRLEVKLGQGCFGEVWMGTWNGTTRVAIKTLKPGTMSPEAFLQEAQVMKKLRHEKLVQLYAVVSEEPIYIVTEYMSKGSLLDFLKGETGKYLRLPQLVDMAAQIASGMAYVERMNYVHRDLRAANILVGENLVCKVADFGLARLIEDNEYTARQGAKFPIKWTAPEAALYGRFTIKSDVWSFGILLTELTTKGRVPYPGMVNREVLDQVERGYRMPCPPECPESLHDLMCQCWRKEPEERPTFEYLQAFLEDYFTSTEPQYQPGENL
# T3 sequence (P41240 whole entry): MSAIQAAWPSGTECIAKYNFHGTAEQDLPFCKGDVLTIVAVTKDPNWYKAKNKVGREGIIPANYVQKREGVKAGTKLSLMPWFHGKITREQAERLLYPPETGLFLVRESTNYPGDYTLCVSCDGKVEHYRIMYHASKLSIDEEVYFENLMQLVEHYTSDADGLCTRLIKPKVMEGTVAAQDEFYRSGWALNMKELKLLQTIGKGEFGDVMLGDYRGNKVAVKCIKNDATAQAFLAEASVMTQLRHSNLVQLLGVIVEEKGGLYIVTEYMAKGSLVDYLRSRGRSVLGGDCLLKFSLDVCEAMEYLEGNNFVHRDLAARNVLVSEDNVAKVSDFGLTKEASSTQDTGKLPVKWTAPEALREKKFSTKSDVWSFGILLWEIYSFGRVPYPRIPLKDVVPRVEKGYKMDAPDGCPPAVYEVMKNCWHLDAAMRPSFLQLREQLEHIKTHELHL
# T1 sequence (P06240 whole entry): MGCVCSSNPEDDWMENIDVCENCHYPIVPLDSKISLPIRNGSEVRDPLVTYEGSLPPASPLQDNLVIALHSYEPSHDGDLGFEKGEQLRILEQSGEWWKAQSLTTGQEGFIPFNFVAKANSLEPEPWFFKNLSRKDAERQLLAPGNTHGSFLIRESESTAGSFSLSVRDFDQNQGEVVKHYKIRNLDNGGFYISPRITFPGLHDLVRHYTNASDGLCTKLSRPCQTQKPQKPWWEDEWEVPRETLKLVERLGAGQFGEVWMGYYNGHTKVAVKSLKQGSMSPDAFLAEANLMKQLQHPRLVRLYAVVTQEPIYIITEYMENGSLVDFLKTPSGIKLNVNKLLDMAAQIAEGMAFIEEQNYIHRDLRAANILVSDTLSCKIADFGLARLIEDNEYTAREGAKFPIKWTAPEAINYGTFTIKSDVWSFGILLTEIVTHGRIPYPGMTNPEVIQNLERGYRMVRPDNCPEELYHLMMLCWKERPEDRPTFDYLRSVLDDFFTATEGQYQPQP
molecule,measurement,setting,value
4-[bis(2-chloroethyl)amino]-L-phenylalanine [Melphalan],patients showing a favorable response,[1],one third to one half
"Cc1c2oc3c(C)ccc(C(=O)N[C@@H]4C(=O)N[C@H](C(C)C)C(=O)N5CCC[C@H]5C(=O)N(C)CC(=O)N(C)[C@@H](C(C)C)C(=O)O[C@@H]4C)c3nc-2c(C(=O)N[C@@H]2C(=O)N[C@H](C(C)C)C(=O)N3CCC[C@H]3C(=O)N(C)CC(=O)N(C)[C@@H](C(C)C)C(=O)O[C@@H]2C)c(N)c1=O [Actinomycin D] (I: T[dV]P[Sar][NMeV] / II: T[dV]P[Sar][NMeV]; ester I:1-I:C, II:1-II:C; linker I:N-II:N via Actinocin(9to1))",dose excreted intact into the bile,[2]; in vivo,Half
same,passage of the blood-brain barrier,[2]; in vivo,does not pass the blood-brain barrier
"CS(=O)(=O)OCCCCOS(C)(=O)=O [Busulfan, 1,4-butanediol dimethanesulfonate]",adults obtaining hematologic remission,[3],Approximately 90%
"O=C(O)CCCc1ccc(N(CCCl)CCCl)cc1 [Chlorambucil, 4-[bis(2-chlorethyl)amino]benzenebutanoic acid]",terminal half-life of the parent drug,[2]; single oral doses of 0.6-[…],1.5 h
N.N.[Cl][Pt][Cl] [Cisplatin],oral absorption,[2]; in vivo,not absorbed orally
"O=C1[C@@H](Cc2ccc(O)cc2)N=C(c2ccc(O)cc2)c2cc(Cl)ccc2N1Cc1ccc(-c2ccccc2)cc1 [D-Tyr,BnzPh, 7-chloro-1,3-dihydro-1-(-4-biphenylmethyl)-3-(-4-hydroxyphenylmethyl)-5-(4-hydroxyphenyl)-(2H)1,4-benzodiazepin-2-one]",activity at 3 µM,[4]; [13],94%
same,activity at 16 µM,"[4]; Homo sapiens, HT-29, 336 h, 16 μM, colonies ≥100 cells 14 days after plating",90%
same,activity at 32 µM,"[4]; Homo sapiens, HT-29, 336 h, 32 μM, colonies ≥100 cells 14 days after plating",100%
same,IC50,[5],335 µM
same,HT-29 Growth,[6]; 32 μM,cytotoxic
same,activity at 3 µM,"[6]; Homo sapiens, HT-29, 120 h",94 ± 9%
same,activity at 16 µM,"[6]; Homo sapiens, HT-29, 120 h, 16 μM",74 ± 5%
same,IC50,Lck (p56^lck),640 µM
same,IC50,protein kinase A (PKA),54 µM
same,IC50,Src [7],97 µM
same,Ki,Src [7],43 µM
same,IC50,Csk (C-Src kinase),404 µM
same,activity at 3 µM,[8]; [14],89 ± 6%
same,activity at 16 µM,"[8]; Homo sapiens, Fibroblast, 120 h, 16 μM, viable cell count 5 days after plating",100 ± 4%
same,activity at 32 µM,"[8]; Homo sapiens, Fibroblast, 120 h, 32 μM, viable cell count 5 days after plating",100 ± 7%
"COc1cccc2c1C(=O)c1c(O)c3c(c(O)c1C2=O)C[C@@](O)(C(C)=O)C[C@@H]3O[C@H]1C[C@H](N)[C@H](O)[C@H](C)O1 [Daunorubicin, 5,12-Naphthacenedione, (8S-cis)-8-acetyl-10-[(3-amino-2,3,6-trideoxy-α-L-lyxo-hexanopyranosyl)oxy]-7,8,9,10-tetrahydro-6,8,11-trihydroxy-10-methoxy-, hydrochloride]",oral absorption,[2]; in vivo,poor
same,elimination half-life,[2],about 19 hr
"COc1cccc2c1C(=O)c1c(O)c3c(c(O)c1C2=O)C[C@@](O)(C(=O)CO)C[C@@H]3O[C@H]1C[C@H](N)[C@H](O)[C@H](C)O1 [Doxorubicin, 5,12-Naphthacenedione, (8s-cis)-10-[(3-amino-2,3,6-trideoxy-α-L-lyxo-hexopyranosyl)oxy]-7,8,9,10-tetrahydro-6,8,11-trihydroxy-8-(hydroxyacetyl)-1-methoxy-hydrochloride]",oral absorption,[2]; in vivo,absorbed poorly
same,secreted into the bile,[2]; in vivo,Forty to 50
same,elimination half-life,[2],about 30 hr
"O=C1[C@H](Cc2ccc(O)cc2)N=C(c2ccc(O)cc2)c2cc(Cl)ccc2N1Cc1ccccc1 [L-Tyr,Bnz]",inhibition of colony formation of HT-29 colon adenocarcinoma cells,[4]; 30 μM,complete inhibition
same,activity at 3 µM,[4]; [13],52%
same,activity at 15 µM,"[4]; Homo sapiens, HT-29, 336 h, 15 μM, colonies ≥100 cells 14 days after plating",11%
same,activity at 30 µM,"[4]; Homo sapiens, HT-29, 336 h, 30 μM, colonies ≥100 cells 14 days after plating",0%
same,IC50,hexokinase (HXK),352 µM
same,IC50,[5],418 µM
same,activity at 3 µM,"[6]; Homo sapiens, HT-29, 120 h",100 ± 3%
same,activity at 15 µM,"[6]; Homo sapiens, HT-29, 120 h, 15 μM",84 ± 6%
same,activity at 30 µM,"[6]; Homo sapiens, HT-29, 120 h, 30 μM",73 ± 9%
same,IC50,[9],931 µM
same,IC50,Lck (p56^lck),570 µM
same,IC50,protein kinase A (PKA),124 µM
same,IC50,Src [7],190 µM
same,Ki,Src [7],74 µM
same,IC50,Csk (C-Src kinase),404 µM
same,activity at 3 µM,[8]; [14],100 ± 4%
same,activity at 15 µM,"[8]; Homo sapiens, Fibroblast, 120 h, 15 μM, viable cell count 5 days after plating",92 ± 6%
same,activity at 30 µM,"[8]; Homo sapiens, Fibroblast, 120 h, 30 μM, viable cell count 5 days after plating",92 ± 8%
same,inhibition of growth of AFB-13 normal fibroblasts,[8]; same concentrations (up to 30 μM),no inhibition
"O=NN(CCCl)C(=O)NC1CCCCC1 [Lomustine, 1-(2-chloro-ethyl)-3-cyclohexyl-1 nitrosourea]",solubility in absolute alcohol,[10]; absolute alcohol,70 mg per ml
same,solubility in water,[10]; water,< 0.05 mg per ml
same,radioactivity excreted as degradation products within 24 hours,"[2]; oral radioactive drug, 30 mg/m^2 to 100 mg/m^2",about half
CO[C@@]12[C@H](COC(N)=O)C3=C(C(=O)C(C)=C(N)C3=O)N1C[C@@H]1N[C@@H]12 [Mitomycin],dose excreted unchanged in the urine,[11],Approximately 10%
DRVYVHPF,Ki,Src [12],3100 µM
EEIYGEFE,Ki,Src [12],70 µM
EFEYAFF,Ki,Src [12],130 µM
KKSRGDYMTMQIG,Ki,Src [12],200 µM
RDRVYVHPF,Ki,Src [12],2600 µM
RRLIEDAEYAARG,Ki,Src [12],10000 µM
YIYGSFK,Ki,Src [12],1600 µM

# From patent US6100254A, “Inhibitors of protein tyrosine kinases” (Board of Regents, The University of Texas System, priority 1997, dated 2000)
